Results published in ChEMBL document CHEMBL4145577, “Cytotoxic Anthracycline Metabolites from a Recombinant Streptomyces” (J Nat Prod, 2018).

Experiments:
[1] = system: MDA-MB-435; experiment: Cytotoxicity against human MDA-MB-435 cells after 48 hrs by MTT assay; type: functional, cell-based; settings: MDA-MB-435, 48 h
[2] = system: NCI-H460; experiment: Cytotoxicity against human NCI-H460 cells after 48 hrs by MTT assay; type: functional, cell-based; settings: NCI-H460, 48 h
[3] = system: MDA-MB-231; experiment: Cytotoxicity against human MDA-MB-231 cells after 48 hrs by MTT assay; type: functional, cell-based; settings: MDA-MB-231, 48 h
[4] = system: HCT-116; experiment: Cytotoxicity against human HCT116 cells after 48 hrs by MTT assay; type: functional, cell-based; settings: HCT-116, 48 h
[5] = system: HepG2; experiment: Cytotoxicity against human HepG2 cells after 48 hrs by MTT assay; type: functional, cell-based; settings: HepG2, 48 h
[6] = system: MCF-10A; experiment: Cytotoxicity against human MCF10A cells after 48 hrs by MTT assay; type: cell-based

SMILES	IC50 [1] [µM]	IC50 [2] [µM]	IC50 [3] [µM]	IC50 [4] [µM]	IC50 [5] [µM]	IC50 [6] [µM]
CC[C@@]1(O)C[C@H](O)c2c(O)c3c(c(O)c2[C@H]1C(=O)OC)C(=O)c1cccc(O)c1C3=O	9.2	10	13.2	9.6	13.5	7.1
CC[C@@]1(O)C[C@H](O[C@H]2C[C@H](O)[C@H](O[C@H]3C[C@H](O)[C@H](O[C@H]4C[C@H](O)[C@H](O)[C@H](C)O4)[C@H](C)O3)[C@H](C)O2)c2c(O)c3c(c(O)c2[C@H]1O)C(=O)c1cccc(O)c1C3=O	7	4.8	40.2	9.8	8	3.7
CC[C@@]1(O)CCc2c(O)c3c(c(O)c2[C@H]1O)C(=O)c1cccc(O)c1C3=O	5.7	7.3	10.9	6	13	11.9
CC[C@@]1(O)C[C@H](O[C@H]2CC[C@H](O[C@H]3C[C@H](O)[C@H](O[C@H]4CCC(=O)[C@H](C)O4)[C@H](C)O3)[C@H](C)O2)c2c(O)c3c(c(O)c2[C@H]1O)C(=O)c1cccc(O)c1C3=O	3.9	2.4	23.9	5.4	9.3	10.4
CC[C@]1(O)Cc2c(O)c3c(c(O)c2[C@@H](O[C@H]2C[C@H](O)[C@H](O[C@H]4CC[C@H](O[C@H]5CC[C@H](O)[C@H](C)O5)[C@H](C)O4)[C@H](C)O2)C1)C(=O)c1c(O)cccc1C3=O	4.2	5.4	> 50	0.3	8.6	2.2
CC[C@@]1(O)C[C@H](O[C@H]2C[C@H](O)[C@H](O[C@H]3CC[C@H](O[C@H]4C[C@H](O)[C@H](O)[C@H](C)O4)[C@H](C)O3)[C@H](C)O2)c2c(O)c3c(c(O)c2[C@H]1O)C(=O)c1cccc(O)c1C3=O	5.9	2.6	19.2	5.8	6.2	10.5
CC[C@@]1(O)C[C@H](O[C@H]2C[C@H](O)[C@H](O[C@H]3CC[C@H](O[C@H]4CC[C@H](OC5CC[C@H](O)[C@H](C)O5)[C@H](C)O4)[C@H](C)O3)[C@H](C)O2)c2c(O)c3c(c(O)c2[C@H]1O)C(=O)c1cccc(O)c1C3=O (stereo partly drawn)	37.9	2.2	10.1	7.2	8.5	5.7
COc1cccc2c1C(=O)c1c(O)c3c(c(O)c1C2=O)C[C@@](O)(C(=O)CO)C[C@@H]3O[C@H]1C[C@H](N)[C@@H](O)[C@H](C)O1 [EPIRUBICIN]	0.7	0.02	0.9	0.4		0.1
CC[C@]1(O)Cc2c(O)c3c(c(O)c2[C@@H](O[C@H]2C[C@H](O)[C@H](O[C@H]4C[C@H](O)[C@H](O[C@H]5CC[C@H](O)[C@H](C)O5)[C@H](C)O4)[C@H](C)O2)C1)C(=O)c1c(O)cccc1C3=O	6.2	0.9	> 50	3.1	11.3	16.9
CC[C@@]1(O)C[C@H](O[C@H]2CC[C@H](O[C@H]3C[C@H](O)[C@H](O[C@H]4CC[C@H](O)[C@H](C)O4)[C@H](C)O3)[C@H](C)O2)c2c(O)c3c(c(O)c2[C@H]1O)C(=O)c1cccc(O)c1C3=O	3.1	1.6	24.5	6.1	5.7	6.7
CC[C@@]1(O)C[C@H](O[C@H]2C[C@H](O)[C@H](O[C@H]3C[C@H](O)[C@H](O[C@H]4CC[C@H](O)[C@H](C)O4)[C@H](C)O3)[C@H](C)O2)c2c(O)c3c(c(O)c2[C@H]1O)C(=O)c1cccc(O)c1C3=O		0.7	7.4	5	1.5	3.4
CC[C@@]1(O)C[C@H](O[C@H]2C[C@H](O)[C@H](O[C@H]3C[C@H](O)[C@H](O)[C@H](C)O3)[C@H](C)O2)c2c(O)c3c(c(O)c2[C@H]1O)C(=O)c1cccc(O)c1C3=O		0.6	10.2	13.2	2	2.5
CC[C@@]1(O)C[C@H](O[C@H]2C[C@H](O)[C@H](O[C@H]3CC[C@H](O[C@H]4CC[C@H](O)[C@H](C)O4)[C@H](C)O3)[C@H](C)O2)c2c(O)c3c(c(O)c2[C@H]1O)C(=O)c1cccc(O)c1C3=O	11.7	1.3	10.4	32.8	5.5	5.2
CC[C@@]1(O)C[C@H](O[C@H]2C[C@H](O)[C@H](O[C@H]3C[C@H](O)[C@H](O[C@H]4CCC(=O)[C@H](C)O4)[C@H](C)O3)[C@H](C)O2)c2c(O)c3c(c(O)c2[C@H]1O)C(=O)c1cccc(O)c1C3=O	5.6	0.38	5.4	1.4	0.9	2
CC[C@@]1(O)C[C@H](O[C@H]2CC[C@H](O[C@H]3C[C@H](O)[C@H](O[C@H]4CC[C@H](O)[C@H](C)O4)[C@H](C)O3)[C@H](C)O2)c2c(O)c3c(c(O)c2[C@H]1C(=O)OC)C(=O)c1cccc(O)c1C3=O	1.9	5.7	9.3	3.6	6.4	4.6
CC[C@@]1(O)C[C@H](O[C@H]2CC[C@H](O[C@H]3CC[C@H](O[C@H]4CC[C@H](O)[C@H](C)O4)[C@H](C)O3)[C@H](C)O2)c2c(O)c3c(c(O)c2[C@H]1C(=O)OC)C(=O)c1cccc(O)c1C3=O	2.7	10	4.5	0.2	1.7	1.4
